From US20220016277A1, “MACROCYCLIC COMPLEXES OF RADIONUCLIDES AND THEIR USE IN RADIOTHERAPY OF CANCER” (Cornell University, priority 2018, published 2022)

Test: Organ distribution of ^225Ac complexes following intravenous injection in mice
Type: in vivo, C57BL/6 mice
Protocol: In Vivo Biodistribution of ^225Ac Complexes of Macropa and DOTA. All experiments were approved by the Institutional Animal Care Committee (IACC) of the University of British Columbia and were performed in accordance with the Canadian Council on Animal Care Guidelines. A total of 9 female C57BL/6 mice (6-8 weeks old, 20-25 g) were used for the biodistribution study of each radiometal complex, n=3 for each time point.
Macropa (100 μL of a 1 mg/mL solution in NH4OAc) was diluted with 387 μL of NH4OAc (1 M, pH 7), and an aliquot (203 μL) of ^225Ac(NO3)3 (˜157 kBq) was then added; the pH of this solution was adjusted to 6.5-7 by the addition of 1 M NaOH (210 μL, trace metal grade). After 5 min at ambient temperature, the reaction solution was analyzed by TLC (0.4 M pH 4 sodium citrate as the eluent), which confirmed >95% radiochemical yield. The reaction was allowed to proceed overnight, and the radiochemical yield was again confirmed to be >95% the following morning. At this time, mice were anesthetized by 2% isoflurane, and approximately 100 μL (10-15 kBq) of the [^225Ac(macropa)]^+ complex were injected into the tail vein of each mouse. After injection, mice were allowed to recover and roam freely in their cages, and were euthanized by CO2 inhalation at 15 min, 1 h, or 5 h (n=3 at each time point) post-injection. Blood was collected by cardiac puncture and placed into an appropriate test tube for scintillation counting. Tissues collected included heart, liver, kidneys, lungs, small intestine, large intestine, brain, bladder, spleen, stomach, pancreas, bone, thyroid, tail, urine, and feces. Tissues were weighed and then counted with a calibrated gamma counter (Packard, Cobra II model 5002) using three energy windows: 60-120 keV (window A), 180-260 keV (window B), and 400-480 keV (window C). Counting was performed both immediately after sacrifice and after 7 days; counts were decay corrected from the time of injection and then converted to the percentage of injected dose (% ID) per gram of tissue (% ID/g). […]
The biodistribution studies of [^225Ac(DOTA)]^− and ^225Ac(NO3)3 were carried out as described above for [^225Ac(macropa)]^+, with the following modifications. [^225Ac(DOTA)^− was prepared by adding ^225Ac(NO3)3 (338 μL, 1.1 MBq) to a solution of DOTA (100 μg, 20 mg/mL in H2O) in NH4OAc (467 μL, 0.15 M, pH 7). The pH of the solution was adjusted to 7 using NH4OAc (150 μL, 1 M, pH 7) and the solution was heated at 85° C. for 45 min. RCY >99% was confirmed by TLC as described above. [^225Ac(DOTA)]^− was diluted with saline to a final concentration of 0.05 MBq/100 μL, and 100 μL were injected into each mouse. ^225Ac(NO3)3 (˜58 μL, 0.4 MBq) was diluted and injected in the same manner as [^225Ac(DOTA)]^−. One mouse that was to be euthanized at the 5 h time point in the [^225Ac(DOTA)]^− study died shortly after injection. In the same manner, one mouse that was to be euthanized at the 1 h time point in the ^225Ac(NO3)3 study died.
The in vivo stability [^225Ac(macropa)]^+ was examined by comparing its biodistribution to those of ^225Ac(NO3)3 and [^225Ac(DOTA)]^−. C57BL/6 mice were injected via tail vein with 10-50 kBq of each radiometal complex and were sacrificed after 15 min, 1 h, or 5 h. The amount of ^225Ac retained in each organ was quantified by gamma counting and reported as the percent of injected dose per gram of tissue (% ID/g). The results of these studies are compiled in Tables 1-3. Inadequate stability of an ^225Ac complex leading to the loss of radioisotope in vivo is manifested by the accumulation of ^225Ac in the liver, spleen, and bone of mice.^[11,12,32] […] The biodistribution profile of [^225Ac(macropa)]^+ (FIG. 3B) differs markedly from that of ^225Ac(NO3)3. […] Its biodistribution profile was similar to that of [^225Ac(DOTA)]^− (FIG. 3C), which has been previously shown to retain ^225Ac^3+ in vivo.^[7]

[1] = 1 h post i.v. injection, energy window B (180-260 keV)
[2] = 1 h post i.v. injection, energy window C (400-480 keV)
[3] = 5 h post i.v. injection, energy window A (60-120 keV)
[4] = 5 h post i.v. injection, energy window B (180-260 keV)

In the case of `O=C([O-])CN1CCN(CC(=O)[O-])CCN(CC(=O)[O-])CCN(CC(=O)[O-])CC1.[225Ac+3]` [[^225Ac(DOTA)]^−], the “Organ distribution: bladder” value [1] is reported as 4.7141 % ID/g, the “Organ distribution: blood” value [1] is reported as 0.1127 % ID/g and the “Organ distribution: bone (femur + joint)” value [1] is reported as 0.4126 % ID/g. For the same compound, the “Organ distribution: brain” value [1] was 0.0248 % ID/g, the “Organ distribution: feces” value [1] was 0.2349 % ID/g and the “Organ distribution: heart” value [1] was 0.1378 % ID/g. The “Organ distribution: kidneys” value [1] was 1.2560 % ID/g, the “Organ distribution: large intestines” value [1] was 0.0813 % ID/g and the “Organ distribution: liver” value [1] was 0.2672 % ID/g. The “Organ distribution: lungs” value [1] was 0.1946 % ID/g, the “Organ distribution: pancreas” value [1] was 0.0746 % ID/g and the “Organ distribution: small intestines” value [1] was 1.8809 % ID/g. For the same compound, the “Organ distribution: spleen” value [1] was 0.0825 % ID/g, the “Organ distribution: stomach” value [1] was 0.1379 % ID/g and the “Organ distribution: tail” value [1] was 0.8973 % ID/g. For the same compound, the “Organ distribution: thyroids” value [1] was 2.6514 % ID/g, the “Organ distribution: urine” value [1] was 159.1628 % ID/g and the “Organ distribution: bladder” value [2] was 6.9149 % ID/g. For the same compound, the “Organ distribution: blood” value [2] was 0.1102 % ID/g, the “Organ distribution: bone (femur + joint)” value [2] was 0.5654 % ID/g and the “Organ distribution: brain” value [2] was 0.0380 % ID/g. The “Organ distribution: feces” value [2] was 0.4091 % ID/g, the “Organ distribution: heart” value [2] was 0.2857 % ID/g and the “Organ distribution: kidneys” value [2] was 1.4787 % ID/g. The “Organ distribution: large intestines” value [2] was 0.1381 % ID/g, the “Organ distribution: liver” value [2] was 0.2841 % ID/g and the “Organ distribution: lungs” value [2] was 0.2551 % ID/g. For the same compound, the “Organ distribution: pancreas” value [2] was 0.1730 % ID/g, the “Organ distribution: small intestines” value [2] was 2.0201 % ID/g and the “Organ distribution: spleen” value [2] was 0.2228 % ID/g. The “Organ distribution: stomach” value [2] was 0.1720 % ID/g, the “Organ distribution: tail” value [2] was 1.0280 % ID/g and the “Organ distribution: thyroids” value [2] was 3.5247 % ID/g. For the same compound, the “Organ distribution: urine” value [2] was 177.6788 % ID/g, the “Organ distribution: bladder” value [3] was 0.3551 % ID/g and the “Organ distribution: blood” value [3] was 0.0140 % ID/g. The “Organ distribution: bone (femur + joint)” value [3] was 0.2063 % ID/g, the “Organ distribution: brain” value [3] was 0.0213 % ID/g and the “Organ distribution: feces” value [3] was 5.5318 % ID/g. The “Organ distribution: heart” value [3] was 0.0664 % ID/g, the “Organ distribution: kidneys” value [3] was 0.6172 % ID/g and the “Organ distribution: large intestines” value [3] was 0.2026 % ID/g. For the same compound, the “Organ distribution: liver” value [3] was 0.1010 % ID/g, the “Organ distribution: lungs” value [3] was 0.0390 % ID/g and the “Organ distribution: pancreas” value [3] was 0.0677 % ID/g. The “Organ distribution: small intestines” value [3] was 0.0967 % ID/g, the “Organ distribution: spleen” value [3] was 0.1380 % ID/g and the “Organ distribution: stomach” value [3] was 0.0852 % ID/g. The “Organ distribution: tail” value [3] was 0.3057 % ID/g, the “Organ distribution: thyroids” value [3] was 3.6425 % ID/g and the “Organ distribution: urine” value [3] was 1.1612 % ID/g. For the same compound, the “Organ distribution: bladder” value [4] was 0.7521 % ID/g, the “Organ distribution: blood” value [4] was 0.0292 % ID/g and the “Organ distribution: bone (femur + joint)” value [4] was 0.1478 % ID/g. For the same compound, the “Organ distribution: brain” value [4] was 0.0513 % ID/g, the “Organ distribution: feces” value [4] was 3.3534 % ID/g and the “Organ distribution: heart” value [4] was 0.0879 % ID/g. The “Organ distribution: kidneys” value [4] was 0.6718 % ID/g, the “Organ distribution: large intestines” value [4] was 0.2527 % ID/g and the “Organ distribution: liver” value [4] was 0.2712 % ID/g. For the same compound, the “Organ distribution: lungs” value [4] was 0.1289 % ID/g, the “Organ distribution: pancreas” value [4] was 0.1266 % ID/g and the “Organ distribution: small intestines” value [4] was 0.2065 % ID/g. For the same compound, the “Organ distribution: spleen” value [4] was 0.0834 % ID/g, the “Organ distribution: stomach” value [4] was 0.1789 % ID/g and the “Organ distribution: tail” value [4] was 0.1634 % ID/g. For the same compound, the “Organ distribution: thyroids” value [4] was 16.2357 % ID/g and the “Organ distribution: urine” value [4] was 3.6967 % ID/g.
